A short description of the series: In vivo metabolite identification (MetID) after concomitant omeprazole/D3-omeprazole administration, mouse plasma and brain. Conditions: for D, i.p. route (brain): found / not found / A, i.p. route (plasma): found / not found: 50 mg/kg omeprazole/D3-omeprazole 1:1, i.p.; for D, i.p. route (brain): found / not found / E, i.v. route (brain): found / not found / F, p.o. route (brain): found / not found: mouse brain; for A, i.p. route (plasma): found / not found / B, i.v. route (plasma): found / not found / C, p.o. route (plasma): found / not found: mouse plasma; for E, i.v. route (brain): found / not found / B, i.v. route (plasma): found / not found: 50 mg/kg omeprazole/D3-omeprazole 1:1, i.v.; for samples (matrix/route) in which the metabolite was observed: 50 mg/kg omeprazole/D3-omeprazole 1:1, mice; for F, p.o. route (brain): found / not found / C, p.o. route (plasma): found / not found: 50 mg/kg omeprazole/D3-omeprazole 1:1, p.o. Set-up: species or system Male ICR mice; key to D, i.p. route (brain): found / not found / E, i.v. route (brain): found / not found / F, p.o. route (brain): found / not found / A, i.p. route (plasma): found / not found / B, i.v. route (plasma): found / not found / C, p.o. route (plasma): found / not found: O, found; -, not found. Here is the method:
The LC–QTOF-MS system was consisted of a chromatographic pump system (Shimadzu CBM–20A/LC–20AD, Shimadzu Scientific Instruments, Riverwood Dr, Columbia, SC, USA), an auto-sampler system (Eksigent CTC HTS PAL, Sciex, Redwood City, CA, USA), equipped with a mass spectrometer (TripleTOF^TM 5600, Sciex, Redwood City, CA, USA). Chromatographic separation was performed using reversed-phase C18 columns (Phenomenex® Kinetex XB–C18 column; 2.1 × 50 mm for bioanalytical sample quantification and 2.1 × 100 mm for MetID). The HPLC mobile phase was comprised of distilled/deionized water containing 0.1% formic acid (phase A) and acetonitrile containing 0.1% formic acid (phase B) with a binary gradient program. The LC–gradient was optimized as follows: 3.2 min for the quantification (0–0.5 min, 5% B; 0.5–1.2 min, 5–95% B; 1.2–1.4 min, 95% B; 1.4–1.5 min, 95–5% B; and 1.5–3.2 min, 5% B with a flow rate of 0.4 mL/min) and 23 min for MetID (0–1 min, 5% B; 1–13 min, 5–40% B; 13–13.5 min, 40–45% B; 13.5–15.5 min, 45–90% B; 15.5–17.9 min, 90% B; 17.9–18 min, 90–5% B; and 18–23 min, 5% B with a flow rate of 0.3mL/min). In particular, the LC separation conditions for MetID studies were optimized where the peaks of metabolites were separated as much as possible. This was critical in searching for any relevant metabolites originated from omeprazole with unique isotope ratio 1:1.
The single reaction monitoring at high sensitivity option (SRMHS) in the product ion scan was used for the quantification of PK as well as MetID samples. The information-dependent analysis (IDA) method including high resolution TOF full scan and seven unique information-dependent product ion scans were performed for the MetID study. The ion spray voltage (ISVF) was set at 5500 V. The source gas (nebulizer [GS1, ion source gas1] and heater [GS2, ion source gas2]) was set at 50 psi, and the source temperature was set at 500 °C with the curtain gas (CUR) flow of […].
A separate in vivo MetID study was conducted. A total of 50 mg/kg (1:1 ratio of omeprazole and D3–omeprazole) was given through each administration route (p.o., i.v. and i.p.). After administration, blood and brain tissue sampling was conducted in the same manner as the previous PK studies. The collected samples were stored at −80 °C until analysis.
The plasma samples obtained from the study dosed with 50 mg/kg were collected according to the Hamilton pooling method. The pooled plasma sample (a total of 274 μL) was transferred to a clean tube, and 1 mL of ACN was added. The pretreated samples were centrifuged at 10,000 rpm for 5 min, and 1100 μL of the supernatant was evaporated to dryness under vacuum in a centrifugal evaporator (CVE–3110, Eyela, Tokyo, Japan) connected to cold trap (UT–1000, Eyela, Tokyo, Japan). The dried residue was re-constituted, shaken and centrifuged. After centrifugation, the supernatant was transferred to an LC–vial for analysis.
The metabolites of omeprazole were investigated using an LC–QTOF–MS assay. […] In this case, any metabolites having a mass difference of 3 daltons between omeprazole and its stable isotope D3–omeprazole were thoroughly searched as possible drug-related metabolites.

For the molecule `COc1ccc2nc(S(=O)(=O)Cc3ncc(C)c(OC)c3C)[nH]c2c1` [Metabolite M14, omeprazole sulfone], the “D, i.p. route (brain): found / not found” value is listed as “O”; the “A, i.p. route (plasma): found / not found” value is “O”; the “E, i.v. route (brain): found / not found” value was “O”; the “B, i.v. route (plasma): found / not found” value is “O”. Further, the “samples (matrix/route) in which the metabolite was observed” value (“samples (matrix/route)” below) is “all plasma samples (all dosing routes) and all brain samples (all dosing routes)”; the “F, p.o. route (brain): found / not found” value is reported as “O”; the “C, p.o. route (plasma): found / not found” value was “O”.

In the case of `COc1ccc2[nH]c(SCc3ncc(C)c(OC)c3C)nc2c1` [Metabolite M15, omeprazole sulfide], the “D, i.p. route (brain): found / not found” value is “O”; the “A, i.p. route (plasma): found / not found” value is reported as “O”; the “E, i.v. route (brain): found / not found” value is recorded as “O”; the “B, i.v. route (plasma): found / not found” value is listed as “O”. Further, the “F, p.o. route (brain): found / not found” value is recorded as “O” and the “C, p.o. route (plasma): found / not found” value was “O”. Moreover, the “samples (matrix/route)” value (50 mg/kg) is “all plasma samples (all dosing routes) and all brain samples (all dosing routes)”.

Regarding `COc1ccc2[nH]c(SCC(NC(C)=O)C(=O)O)nc2c1` (stereo not drawn) [Metabolite M1], the “D, i.p. route (brain): found / not found” value is “-”; the “A, i.p. route (plasma): found / not found” value is recorded as “O”; the “E, i.v. route (brain): found / not found” value is recorded as “-”; the “B, i.v. route (plasma): found / not found” value was “O”. Also, the “samples (matrix/route)” value was “plasma–IV route and plasma-IP route samples”; the “F, p.o. route (brain): found / not found” value was “-”; the “C, p.o. route (plasma): found / not found” value is given as “-”.

For the molecule `COc1c(C)cnc(CSc2nc3cc(O)ccc3[nH]2)c1C` [Metabolite M17], the “D, i.p. route (brain): found / not found” value is “O”; the “A, i.p. route (plasma): found / not found” value is reported as “-”; the “E, i.v. route (brain): found / not found” value is “O”; the “B, i.v. route (plasma): found / not found” value is “-”. For the same molecule, the “samples (matrix/route)” value is “only from the brain–IP route and brain–IV route”; the “F, p.o. route (brain): found / not found” value is “-”; the “C, p.o. route (plasma): found / not found” value is listed as “-”.

In the case of `COc1c(C)cnc(C[S+]([O-])c2nc3cc(O[C@@H]4O[C@H](C(=O)O)[C@@H](O)[C@H](O)[C@H]4O)ccc3[nH]2)c1C` (stereo partly drawn) [Metabolite M2], the “D, i.p. route (brain): found / not found” value is recorded as “O”; the “A, i.p. route (plasma): found / not found” value is given as “O”; the “E, i.v. route (brain): found / not found” value was “O”; the “B, i.v. route (plasma): found / not found” value is recorded as “O”. For the same molecule, the “samples (matrix/route)” value is given as “all samples except the brain–PO route sample”; the “F, p.o. route (brain): found / not found” value is given as “-”; the “C, p.o. route (plasma): found / not found” value was “O”.

`COc1ccc2[nH]c([S+]([O-])Cc3ncc(C)cc3C)nc2c1` (stereo not drawn) [Metabolite M11]: the “D, i.p. route (brain): found / not found” value was “O”; the “A, i.p. route (plasma): found / not found” value is “O”; the “E, i.v. route (brain): found / not found” value is on record as “O”; the “B, i.v. route (plasma): found / not found” value is given as “O”. In addition, the “samples (matrix/route)” value was “all plasma samples (all dosing routes) and all brain samples (all dosing routes)”; the “F, p.o. route (brain): found / not found” value is reported as “O”; the “C, p.o. route (plasma): found / not found” value was “O”.

The record behind these values is article PMC7400457, “Profiling and Identification of Omeprazole Metabolites in Mouse Brain and Plasma by Isotope Ratio-Monitoring Liquid Chromatography-Mass Spectrometric Method” (Life, 2020).
